Laboratory results from article PMC10982999, “Structure-Guided Design and Optimization of Covalent VHL-Targeted Sulfonyl Fluoride PROTACs” (Journal of Medicinal Chemistry, 2024).

How the values were obtained:
VHL in HEK293T cells = molecular target: T1, VHL in HEK293T cells (Homo sapiens, UniProt P40337); assay: Gel-based competition pull-down assay from live cells; type: cell-based; settings: HEK293T cells pretreated 2 h at 37 °C; lysate treated with VHL-SF2-Biotin 50 μM 2 h
T1 construct: endogenous in cells; host or cells: HEK293T
Experimental: Figure 2 (A) Structure of VHL-SF2. […] (E) Competition pull-down assay from live cells between VHL-SF2-Biotin and VHL-SF2. HEK293T cells were pretreated with DMSO or varying concentrations of VHL-SF2 for 2 h at 37 °C. The cells were lysed and treated with DMSO or VHL-SF2-Biotin (50 μM) for 2 h at room temperature. A pull-down with streptavidin beads was conducted, after which the protein was resolved on SDS/PAGE. VHL and loading control GAPDH levels were visualized by Western blotting.
Initially, we subjected VHL-SF2-Biotin to the streptavidin shift assay and observed a greater extent of VHL modification (44%) than for VHL-SF1-Biotin under the same conditions (Figure S2). […] Intact LC–MS analysis confirmed single labeling of VHL by VHL-SF2, with 65% conversion at 24 h (Figure S5). Although we attempted several site ID identification experiments by digesting the labeled recombinant VHL, the Ser110-containing peptide was not detected in the samples treated with VHL-SF2. This observation is consistent with a change in peptide properties that is incompatible with mass spectrometry detection compared to untreated samples (Table S2). […]
VCB (11.1 mg/ mL) was diluted with PBS pH 7.4 (2 µg/ mL). […] 10 µL of each sample was loaded onto the gel and the bands were quantified […]

[1] = molecular target: T2, BRD4 (HEK293 HiBiT-BRD4 Cln3 cells) (Homo sapiens, UniProt O60885); assay: BRD4 HiBiT degradation assay; type: cell-based
T2 construct: GSK; host or cells: HEK293 HiBiT-BRD4 Cln3
Experimental: Figure 3 (A) Structure of BRD-SF2. […] BRD4 and loading control GAPDH levels were visualized by Western blotting. […] (D) HEK293 HiBiT-BRD4 Cln3 cells were treated with epoxomicin (1 μM) for 3 h, followed by the respective PROTAC or VHL-SF2 dose-dependently (75–0.01 μM) for 18 h. […] (E) HEK293 HiBiT-BRD4 Cln3 cells were treated with MLN4924 (1 μM) for 3 h, followed by the respective PROTAC or VHL-SF2 dose-dependently (75–0.01 μM) for 18 h. […] (F) Structure of AR-VHL-SF2 and AR2-VHL-SF2. […] The data the show mean ± SEM (n = 3).
Cellular BRD4/AR HiBiT assay
The HiBiT tagged cells were seeded at 10,000 cells per well in a 384-well plate (Thermo Scientific, 164610) at 25 µL per well in DMEM media containing 10% FBS and incubated overnight. Compounds were dispensed using D300e Digital Dispenser (HP) and normalized to 0.1% DMSO. Cells were pre-treated with Epoxomicin or MLN4924 for 3 h before treatment or directly with the PROTAC degraders for 18 or 24 h. Nano -Glo HiBiT lytic detection assay was performed as described in the manufacturer protocol (Promega). 25 µL of premixed detection reagent was added to each well of the 384 well assay plate and incubated for 15 min on an orbital shaker (at 600 RPM), and luminescence was read using a PHERAstar FS plate reader (BMG Labtech). Corresponding background RLU values were subtracted from DMSO control values and the percentage of protein (%) of were then calculated against […]
DMSO-treated controls. […]

Cc1cc([C@H](C(=O)N2C[C@H](S(=O)(=O)F)C[C@H]2C(=O)N[C@@H](CC(=O)OC(C)(C)C)c2ccc(-c3scnc3C)cc2)C(C)C)on1 [VHL-SF2, tert-Butyl (S)-3-((2S,4R)-4-(Fluorosulfonyl)-1-((R)-3-methyl-2-(3-methylisoxazol-5-yl)butanoyl)pyrr-olidine-2-carboxamido)-3-(4-(4-methylthiazol-5-yl)phenyl)propanoate]
pull-down of VHL by VHL-SF2-Biotin after compound pretreatment (VHL in HEK293T cells): dose-dependently competed
effect on BRD4 levels ([1]; 18 h, 75 μM-1 pM): did not affect BRD4 levels
DC50 ([1]; read-out: BRD4 DC50): > 75 µM
